Key:
B. pahangi adult worms = test: Parasite motility assay, adult B. pahangi; assay type: cell-based, Brugia pahangi; details: in vitro motility, active at compound concentrations below 1 μM
Description: Parasite Motility Assays. Adult and microfilariae B. malayi and B. pahangi parasites, harvested from infected jirds, were procured from the NIAID/NIH Filariasis Research Reagent Resource Center (FR3). […] (Athens, Ga.). Adult worms were plated in 24-well plates with 2 mL of Advanced RPMI 1640 medium (Invitrogen) supplemented with 25 mM HEPES, 2 mM L-Glutamine (Invitrogen), 100 U/mL Penicillin (Invitrogen), 100 µg/mL Streptomycin (Invitrogen), […] Amphotericin B solution (Invitrogen), and 5% heat inactivated fetal bovine serum and placed in a 37° C. humidified incubator with 5% CO2. After 24 h, adult worms were selected based upon motility as described below. After scoring for motility, 4-6 highly motile worms were selected for each treatment group and were transferred to new plates. Microfilariae were centrifuged at 5000×g for 5 min, and re-suspended in 2 ml of media. Microfilarial density was determined using a hemocytometer and were plated in a 96-well plate at 80 microfilariae/well with 200 μL of complete media. Treatment groups received compounds (0.1% DMSO) at 1 μM and 100 nM with 0.1% DMSO as a vehicle control. Cultures were incubated at 37° C. in a humidified incubator with 5% CO2. […] The motility of the worms and microfilariae were evaluated every 24 h and analyzed by a one sided unpaired Student's t-test using Microsoft Excel. […]

[1] = test system: L. sigmodontis adult worms; test: Parasite motility assay, adult L. sigmodontis; assay type: cell-based, Litomosoides sigmodontis; details: in vitro motility, active at compound concentrations below 1 μM
[2] = test system: L. sigmodontis microfilariae; test: Parasite motility assay, L. sigmodontis microfilariae; assay type: cell-based, Litomosoides sigmodontis; details: in vitro motility, active at compound concentrations below 1 μM
[3] = test system: Onchocerca gutturosa Adult Male Worms; test: Onchocerciasis in vitro screening model, worm motility score; assay type: cell-based; details: in vitro; Onchocerca gutturosa adult male worms; class A/B/C; read-out: O. gutturosa activity level (IC50 or MED)

For “2-(3-(5-isoprop- oxypyridin-2- yl)-1,2,4- thiadiazol-5- ylamino)-N,N- dimethyl-5- (trifluoromethyl) nicotinamide [Compound 250]”, the “B. pahangi activity against adult filaria (level E)” value (B. pahangi adult worms) was “E (activity against adult filaria at compound concentrations below 1 μM (activity level E))”, the “L. sigmodontis activity against adult filaria (level E)” value [1] was “E (activity against adult filaria at compound concentrations below 1 μM (activity level E))” and the “L. sigmodontis activity against microfilaria (level D)” value [2] was “D (activity against microfilaria at compound concentrations below 1 μM (activity level D))”. It also gave an IC50 [3] of 500 to 5000 nM.
With `CC(=O)N(C)c1cccnc1Nc1nc(-c2cc3c(cn2)CN(C(C)C)C3)ns1` [Compound 310, N-(2-(3-(2-isopropyl-2,3-dihydro-1H-pyrrolo[3,4-c]pyridin-6-yl)-1,2,4-thiadiazol-5-ylamino)pyridin-3-yl)-N-methylacetamide] the IC50 [3] was 500 to 5000 nM.
In the case of `CC(=O)N(C)c1cc(C(F)(F)F)cnc1Nc1nc(-c2cc3c(cn2)CN(C(C)C)C3)ns1` [Compound 311, N-(2-(3-(2-isopropyl-2,3-dihydro-1H-pyrrolo[3,4-c]pyridin-6-yl)-1,2,4-thiadiazol-5-ylamino)-5-(trifluoromethyl)pyridin-3-yl)-N-methylacetamide], the IC50 [3] is reported as less than 200 nM.
`CC(C)Oc1ccc(-c2nsc(Nc3ncc(C(F)(F)F)cc3N3CCCC3=O)n2)nc1` [Compound 312, 1-(2-(3-(5-isopropoxypyridin-2-yl)-1,2,4-thiadiazol-5-ylamino)-5-(trifluoromethyl)pyridin-3-yl)pyrrolidin-2-one] was tested, and the IC50 [3] was 500 to 5000 nM.
With `CC(=O)N(C)c1nccnc1Nc1nc(-c2ccc(OC(C)C)cn2)ns1` [Compound 313, N-(3-(3-(5-isopropoxypyridin-2-yl)-1,2,4-thiadiazol-5-ylamino)pyrazin-2-yl)-N-methylacetamide] the IC50 [3] was 500 to 5000 nM.
With `CC(=O)N(C)c1cc(C(F)(F)F)cnc1Nc1nc(-c2ccc(OC(C)C)nn2)ns1` [Compound 314, N-(2-(3-(6-isopropoxy-pyridazin-3-yl)-1,2,4-thiadiazol-5-ylamino)-5-(trifluoromethyl)pyridin-3-yl)-N-methylacetamide] the IC50 [3] was 500 to 5000 nM.
Work on `Cc1cccnc1Nc1nc(-c2ncc(OC(C)C)cn2)ns1` [Compound 315, 3-(5-isopropoxy-pyrimidin-2-yl)-N-(3-methylpyridin-2-yl)-1,2,4-thiadiazol-5-amine] yielded an IC50 [3] of 500 to 5000 nM.
`CC(=O)N(C)c1cc(C(F)(F)F)cnc1Nc1nc(-c2ncc(OC(C)C)cn2)ns1` [Compound 316, N-(2-(3-(5-isopropoxy-pyrimidin-2-yl)-1,2,4-thiadiazol-5-ylamino)-5-(trifluoromethyl)pyridin-3-yl)-N-methylacetamide] gave an IC50 [3] of 500 to 5000 nM.
`CC(=O)N(C)c1cc(C(F)(F)F)cnc1Nc1nc(-c2cc(OC(C)C)ccn2)ns1` [Compound 317, N-(2-(3-(4-isopropoxypyridin-2-yl)-1,2,4-thiadiazol-5-ylamino)-5-(trifluoromethyl)pyridin-3-yl)-N-methylacetamide] showed an IC50 [3] of less than 200 nM.
Work on `COc1ccnc(-c2nsc(Nc3ncc(C(F)(F)F)cc3N(C)C(C)=O)n2)c1` [Compound 318, N-(2-(3-(4-methoxypyridin-2-yl)-1,2,4-thiadiazol-5-ylamino)-5-(trifluoromethyl)pyridin-3-yl)-N-methylacetamide] yielded an IC50 [3] of less than 200 nM.
In the case of `CC(=O)Nc1ncc(C(F)(F)F)cc1N(C)c1nnc(-c2ccc(OC(C)C)cn2)o1` [Compound 319, N-(3-((5-(5-isopropoxypyridin-2-yl)-1,3,4-oxadiazol-2-yl)(methyl)amino)-5-(trifluoromethyl)pyridin-2-yl)acetamide], the IC50 [3] is reported as 500 to 5000 nM.
`CC(C)Oc1cnc(-c2nsc(Nc3ncccc3S(=O)(=O)N(C)C)n2)cc1C(F)(F)F` [Compound 320, 2-(3-(5-isopropoxy-4-(trifluoromethyl)pyridin-2-yl)-1,2,4-thiadiazol-5-ylamino)-N,N-dimethyl-pyridine-3-sulfonamide] gave an IC50 [3] of 500 to 5000 nM.
Work on `CC(C)Oc1ccc(-c2nsc(Nc3ncccc3S(=O)(=O)N(C)C)n2)nc1` [Compound 321, 2-(3-(5-isoprop-oxypyridin-2-yl)-1,2,4-thiadiazol-5-ylamino)-N,N-dimethyl-pyridine-3-sulfonamide] yielded an IC50 [3] of 500 to 5000 nM.
In the case of `CC(C)c1cnc(Nc2nc(-c3cc4c(cn3)N(C)CC4)ns2)cc1C(F)(F)F` [Compound 322, N-(5-isopropyl-4-(trifluoromethyl)pyridin-2-yl)-3-(1-methyl-2,3-dihydro-1H-pyrrolo[2,3-c]pyridin-5-yl)-1,2,4-thiadiazol-5-amine], the IC50 [3] is reported as less than 200 nM.
`CC(C)c1cnc(Nc2nc(-c3cc4c(cn3)N(C)CC4)ns2)c(C(F)(F)F)c1` [Compound 323, N-(5-isopropyl-3-(trifluoromethyl)pyridin-2-yl)-3-(1-methyl-2,3-dihydro-1H-pyrrolo[2,3-c]pyridin-5-yl)-1,2,4-thiadiazol-5-amine] was tested, and the IC50 [3] was less than 200 nM.
In the case of `Cc1cc(C(F)(F)F)cnc1Nc1nc(-c2cc3c(cn2)N(C)CC3)ns1` [Compound 324, 3-(1-methyl-2,3-dihydro-1H-pyrrolo[2,3-c]pyridin-5-yl)-N-(3-methyl-5-(trifluoromethyl)pyridin-2-yl)-1,2,4-thiadiazol-5-amine], the IC50 [3] is reported as less than 200 nM.
For `CC(=O)N(C)c1cc(C(F)(F)F)cnc1Nc1nc(-c2ccccn2)ns1` [Compound 325, N-methyl-N-(2-(3-(pyridin-2-yl)-1,2,4-thiadiazol-5-ylamino)-5-(trifluoromethyl)pyridin-3-yl)acetamide], the IC50 [3] was less than 200 nM.
Molecule `CC(=O)N(C)c1cccnc1Nc1nc(-c2ccc(OC3COC3)cn2)ns1` [Compound 326, N-methyl-N-(2-(3-(5-(oxetan-3-yloxy)pyridin-2-yl)-1,2,4-thiadiazol-5-ylamino)pyridin-3-yl)acetamide] has an IC50 [3] of 500 to 5000 nM.
In the case of `CC(C)OC(=O)c1cccnc1Nc1nc(-c2ccc(OC(C)C)cn2)ns1` [Compound 327, isopropyl 2-(3-(5-isopropoxypyridin-2-yl)-1,2,4-thiadiazol-5-ylamino)nicotinate], the IC50 [3] is reported as 500 to 5000 nM.
`CC(C)Oc1ccc(-c2nsc(Nc3ncc(C(F)(F)F)cc3C(=O)N3CCCC3)n2)nc1` [Compound 328, (2-(3-(5-isoprop-oxypyridin-2-yl)-1,2,4-thiadiazol-5-ylamino)-5-(trifluoromethyl)pyridin-3-yl)(pyrrolidin-l-yl)methanone] was tested, and the IC50 [3] was 500 to 5000 nM.
In the case of `CC(=O)N(C)c1cc(C(F)(F)F)cnc1Nc1nc(-c2ccc(OC3COC3)cn2)ns1` [Compound 329, N-methyl-N-(2-(3-(5-(oxetan-3-yloxy)pyridin-2-yl)-1,2,4-thiadiazol-5-ylamino)-5-(trifluoromethyl)pyridin-3-yl)acetamide], the IC50 [3] is reported as 500 to 5000 nM.
Work on `CC(=O)N(C)c1cc(C(F)F)cnc1Nc1nc(-c2cc3c(cn2)N(C)CC3)ns1` [Compound 330, N-(5-(difluoro-methyl)-2-(3-(1-methyl-2,3-dihydro-1H-pyrrolo[2,3-c]pyridin-5-yl)-1,2,4-thiadiazol-5-ylamino)pyridin-3-yl)-N-methylacetamide] yielded an IC50 [3] of 500 to 5000 nM.
